Data as given in BigSolDB 2.1.

[1] = in 2,2,4-trimethylpentane, 298.2 K
[2] = in 2,2,4-trimethylpentane, 308.2 K
[3] = in 2,2,4-trimethylpentane, 318.2 K

Row | Compound | solubility (mole fraction) [1] | solubility (mole fraction) [2] | solubility (mole fraction) [3] | solubility (mole fraction) (in ethanol, 298.2 K) | solubility (mole fraction) (in ethanol, 308.2 K) | solubility (mole fraction) (in ethanol, 318.2 K)
1 | c1ccc2cc3ccccc3cc2c1 | 0.00119 | 0.00152 | 0.00177 | 0.000505 | 0.000665 | 0.00078
2 | c1ccc2c(c1)ccc1ccccc12 | 0.0246 | 0.0378 | 0.0484 | 0.0119 | 0.0159 | 0.019
